Source: the NIST ThermoML archive (doi:10.1021/je500275j)

Experiment: xn = mol fraction of the nth substance listed
Settings: 100 kPa, Liquid; for viscosity: Falling or rolling sphere viscometry; for mass density: Vibrating tube method

C1CCC(C2CCCCC2)CC1 [1,1'-bicyclohexyl] + CC1CCCCC1
Settings | mass density [kg/m3] | viscosity [mPa·s]
293.15 K, x1 = 0.0999 | 786.65 | 0.882
293.15 K, x1 = 0.2015 | 802.4 | 1.053
293.15 K, x1 = 0.3012 | 816.38 | 1.269
293.15 K, x1 = 0.4007 | 828.96 | 1.513
293.15 K, x1 = 0.4994 | 840.4 | 1.77
293.15 K, x1 = 0.5986 | 850.98 | 2.12
293.15 K, x1 = 0.7002 | 861.06 | 2.507
293.15 K, x1 = 0.7998 | 870.05 | 2.935
293.15 K, x1 = 0.8998 | 878.51 | 3.428
293.15 K, x1 = 1 | 886.39 | 4.017
298.15 K, x1 = 0.0999 | 782.49 | 0.821
298.15 K, x1 = 0.2015 | 798.27 | 0.977
298.15 K, x1 = 0.3012 | 812.39 | 1.173
298.15 K, x1 = 0.4007 | 825.06 | 1.389
298.15 K, x1 = 0.4994 | 836.55 | 1.616
298.15 K, x1 = 0.5986 | 847.21 | 1.923
298.15 K, x1 = 0.7002 | 857.36 | 2.261
298.15 K, x1 = 0.7998 | 866.41 | 2.628
298.15 K, x1 = 0.8998 | 874.87 | 3.05
298.15 K, x1 = 1 | 882.79 | 3.541
303.15 K, x1 = 0.0999 | 778.28 | 0.768
303.15 K, x1 = 0.2015 | 794.17 | 0.905
303.15 K, x1 = 0.3012 | 808.39 | 1.086
303.15 K, x1 = 0.4007 | 821.14 | 1.28
303.15 K, x1 = 0.4994 | 832.74 | 1.49
303.15 K, x1 = 0.5986 | 843.46 | 1.754
303.15 K, x1 = 0.7002 | 853.63 | 2.056
303.15 K, x1 = 0.7998 | 862.73 | 2.367
303.15 K, x1 = 0.8998 | 871.23 | 2.73
303.15 K, x1 = 1 | 879.19 | 3.145
308.15 K, x1 = 0.0999 | 774.06 | 0.722
308.15 K, x1 = 0.2015 | 790.07 | 0.85
308.15 K, x1 = 0.3012 | 804.38 | 1.01
308.15 K, x1 = 0.4007 | 817.21 | 1.185
308.15 K, x1 = 0.4994 | 828.85 | 1.373
308.15 K, x1 = 0.5986 | 839.63 | 1.609
308.15 K, x1 = 0.7002 | 849.8 | 1.871
308.15 K, x1 = 0.7998 | 859.05 | 2.143
308.15 K, x1 = 0.8998 | 867.6 | 2.459
308.15 K, x1 = 1 | 875.6 | 2.817
313.15 K, x1 = 0.0999 | 769.83 | 0.679
313.15 K, x1 = 0.2015 | 785.95 | 0.795
313.15 K, x1 = 0.3012 | 800.36 | 0.942
313.15 K, x1 = 0.4007 | 813.28 | 1.102
313.15 K, x1 = 0.4994 | 824.98 | 1.268
313.15 K, x1 = 0.5986 | 835.85 | 1.474
313.15 K, x1 = 0.7002 | 846.15 | 1.708
313.15 K, x1 = 0.7998 | 855.37 | 1.953
313.15 K, x1 = 0.8998 | 863.97 | 2.227
313.15 K, x1 = 1 | 872.01 | 2.54
318.15 K, x1 = 0.0999 | 765.59 | 0.641
318.15 K, x1 = 0.2015 | 781.82 | 0.747
318.15 K, x1 = 0.3012 | 796.34 | 0.882
318.15 K, x1 = 0.4007 | 809.35 | 1.025
318.15 K, x1 = 0.4994 | 821.14 | 1.177
318.15 K, x1 = 0.5986 | 832.06 | 1.37
318.15 K, x1 = 0.7002 | 842.45 | 1.582
318.15 K, x1 = 0.7998 | 851.7 | 1.788
318.15 K, x1 = 0.8998 | 860.35 | 2.032
318.15 K, x1 = 1 | 868.43 | 2.302
